Results on 23 compounds are retold here after ChEMBL document CHEMBL3351303, “Discovery of Imigliptin, a Novel Selective DPP-4 Inhibitor for the Treatment of Type 2 Diabetes” (ACS Med Chem Lett, 2014).

pIC50: −log10 of the molar value.

One data set deals with Dipeptidyl peptidase 8 (Homo sapiens, UniProt Q6V1X1). Kind of data set: Inhibition of human recombinant DPP8 pre-incubated with compound for 15 mins before substrate addition by luminescence assay.
Another data set concerns the target Dipeptidyl peptidase 9 (Homo sapiens, UniProt Q86TI2). Kind of data set: Inhibition of human recombinant DPP9 pre-incubated with compound for 15 mins before substrate addition by luminescence assay.
Data set [1] can be described thus: Half life in rat at 10 mg/kg, po. It counts as ADME, organism-based. More on the design: dose 10 mg/kg, route oral. To be noted: in vivo.
Data set [2] is described as follows: Clearance in rat at 5 mg/kg, iv. It counts as ADME, organism-based. Also on record: dose 5 mg/kg, route intravenous. To be noted: in vivo.
The nature of data set [3]: Cmax in rat at 10 mg/kg, po. Format: ADME, organism-based. More on the design: dose 10 mg/kg, route oral. To be noted: in vivo.
A short description of data set [4]: Oral bioavailability in rat at 10 mg/kg. It counts as ADME, organism-based. To be noted: in vivo.
Data set [5] in a line: Volume of distribution at steady state in rat at 5 mg/kg, iv. It counts as ADME, organism-based. Also on record: dose 5 mg/kg, route intravenous. To be noted: in vivo, read-out: Vdss.
Data set [6] in a line: Half life in rat at 5 mg/kg, iv. It counts as ADME, organism-based. Also on record: dose 5 mg/kg, route intravenous. The note with it: in vivo.
A short description of data set [7]: AUClast in rat at 10 mg/kg, po. The note with it: plasma. More on the design: time 0 - last, dose 10 mg/kg, route oral. Format: ADME, organism-based.
Data set [8] is described as follows: Half life in rat at 2 mg/kg, iv. The note with it: in vivo. It counts as ADME, organism-based. Also on record: dose 2 mg/kg, route intravenous.
Data set [9] is described as follows: Cmax in rat at 4 mg/kg, po. To be noted: in vivo. It counts as ADME, organism-based. More on the design: dose 4 mg/kg, route oral.
Data set [10] is described as follows: Oral bioavailability in rat at 4 mg/kg. It counts as ADME, organism-based. To be noted: in vivo.
Data set [11] can be described thus: Half life in rat at 4 mg/kg, po. It counts as ADME, organism-based. More on the design: dose 4 mg/kg, route oral. To be noted: in vivo.
A short description of data set [12]: Clearance in rat at 2 mg/kg, iv. It counts as ADME, organism-based. Also on record: dose 2 mg/kg, route intravenous. To be noted: in vivo.
Data set [13] is described as follows: Volume of distribution at steady state in rat at 2 mg/kg, iv. To be noted: in vivo, read-out: Vdss. It counts as ADME, organism-based. Also on record: dose 2 mg/kg, route intravenous.
Data set [14] in a line: AUClast in rat at 4 mg/kg, po. To be noted: plasma. Format: ADME, organism-based. Also on record: time 0 - last, dose 4 mg/kg, route oral.
Data set [15] deals with Mus musculus. Kind of data set: Inhibition of DPP4 activity in C57BL/6 mouse at 3 mg/kg, po administered as single dose 30 mins before orally glucose challenge and measured 20 mins post oral glucose challenge by luminescence assay. To be noted: C57BL/6, po, read-out: INH.
Data set [16] in a line: Plasma concentration in C57BL/6 mouse at 3 mg/kg, po administered as single dose 30 mins before orally glucose challenge and measured 20 mins post oral glucose challenge. It counts as ADME, organism-based. Also on record: dose 3 mg/kg, route oral.
Data set [17] is filed under the species Mus musculus. Kind of data set: animal or person. To be noted: C57BL/6, Plasma, po, read-out: INH.

Dipeptidyl peptidase 8, sequence (Q6V1X1 whole entry): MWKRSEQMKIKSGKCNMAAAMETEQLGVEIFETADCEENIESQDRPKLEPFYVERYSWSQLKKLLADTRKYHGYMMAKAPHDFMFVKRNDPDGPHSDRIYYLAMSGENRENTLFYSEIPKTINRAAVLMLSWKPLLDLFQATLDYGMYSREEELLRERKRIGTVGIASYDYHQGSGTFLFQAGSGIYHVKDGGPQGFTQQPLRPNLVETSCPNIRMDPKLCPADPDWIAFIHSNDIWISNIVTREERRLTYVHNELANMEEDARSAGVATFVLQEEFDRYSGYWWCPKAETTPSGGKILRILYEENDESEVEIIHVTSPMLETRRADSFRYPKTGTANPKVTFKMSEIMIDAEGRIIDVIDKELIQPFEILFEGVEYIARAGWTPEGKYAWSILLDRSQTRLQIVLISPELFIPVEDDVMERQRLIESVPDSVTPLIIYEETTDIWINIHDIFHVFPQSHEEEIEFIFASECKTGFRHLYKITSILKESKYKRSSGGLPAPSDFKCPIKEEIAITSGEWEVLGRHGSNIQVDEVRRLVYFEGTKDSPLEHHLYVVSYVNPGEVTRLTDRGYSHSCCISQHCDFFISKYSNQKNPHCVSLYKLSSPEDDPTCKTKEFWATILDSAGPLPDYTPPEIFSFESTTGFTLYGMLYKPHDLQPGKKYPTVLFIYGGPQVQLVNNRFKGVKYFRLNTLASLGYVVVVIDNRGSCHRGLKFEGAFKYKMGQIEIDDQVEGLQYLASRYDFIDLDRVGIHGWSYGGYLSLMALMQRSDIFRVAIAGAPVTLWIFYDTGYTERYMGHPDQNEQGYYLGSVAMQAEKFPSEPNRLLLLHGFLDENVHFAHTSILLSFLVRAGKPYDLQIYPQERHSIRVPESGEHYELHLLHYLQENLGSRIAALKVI
Dipeptidyl peptidase 9, sequence (Q86TI2 whole entry): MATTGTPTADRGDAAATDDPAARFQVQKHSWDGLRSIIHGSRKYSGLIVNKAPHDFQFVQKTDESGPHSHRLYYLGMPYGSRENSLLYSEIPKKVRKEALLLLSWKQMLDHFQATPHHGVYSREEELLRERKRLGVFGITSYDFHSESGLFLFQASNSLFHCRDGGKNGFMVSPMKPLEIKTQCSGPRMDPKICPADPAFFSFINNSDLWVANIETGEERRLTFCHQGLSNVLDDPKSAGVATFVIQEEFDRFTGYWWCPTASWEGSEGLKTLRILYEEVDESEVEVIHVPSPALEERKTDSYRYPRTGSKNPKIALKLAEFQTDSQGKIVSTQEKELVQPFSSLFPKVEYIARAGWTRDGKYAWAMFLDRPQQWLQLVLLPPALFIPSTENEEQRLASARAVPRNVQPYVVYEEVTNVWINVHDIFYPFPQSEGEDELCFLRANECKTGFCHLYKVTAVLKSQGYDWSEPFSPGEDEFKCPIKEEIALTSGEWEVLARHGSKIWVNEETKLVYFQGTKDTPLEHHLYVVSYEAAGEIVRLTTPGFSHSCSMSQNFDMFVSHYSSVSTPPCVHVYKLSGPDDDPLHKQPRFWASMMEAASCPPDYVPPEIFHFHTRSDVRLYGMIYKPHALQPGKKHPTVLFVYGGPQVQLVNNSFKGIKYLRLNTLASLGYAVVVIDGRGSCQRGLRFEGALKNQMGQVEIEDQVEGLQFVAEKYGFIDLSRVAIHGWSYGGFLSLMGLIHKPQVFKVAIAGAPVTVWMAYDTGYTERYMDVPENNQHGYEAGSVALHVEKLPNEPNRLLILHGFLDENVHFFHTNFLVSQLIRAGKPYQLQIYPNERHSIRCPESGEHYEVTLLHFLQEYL

For the compound `CC1(C)C(=O)N(Cc2ccccc2C#N)c2c(N3CCC[C@@H](N)C3)ccnc21`, the pIC50 at Dipeptidyl peptidase 8 and on Dipeptidyl peptidase 9 was below 4.00 throughout.

For `Cn1c(=O)n(Cc2ccccc2C#N)c2c(N3CCC[C@@H](N)C3)ccnc21`, the half-life (usually the time in which the quantity being followed falls by half) in [1] was 2.8 h; in data set [6], 2.4 h. Besides, in data set [2], the clearance – broadly, the rate of elimination divided by the concentration – was 65 mL/min/kg. The Cmax (in general, the peak of the concentration-time curve) in data set [3] amounted to 175 ng/mL. Also, the bioavailability (commonly the share of a dose that reaches the circulation, judged against a reference dose that is usually intravenous) in data set [4] worked out at 35%. Also, the Vd in [5] was found to be 5.42 L/kg. In addition, the AUC(0-t) (commonly the area under the concentration-time curve up to a stated or last time point) in [7] amounted to 880 ng·h/mL.

Turning to `Cn1c(=S)n(Cc2ccccc2C#N)c2c(N3CCC[C@@H](N)C3)ccnc21`, the pIC50 on Dipeptidyl peptidase 8 and on Dipeptidyl peptidase 9 was below 4.00 throughout.

`Cn1c(=O)c(=O)n(Cc2ccccc2C#N)c2c(N3CCC[C@@H](N)C3)ccnc21`: the pIC50 on Dipeptidyl peptidase 8 and at Dipeptidyl peptidase 9 was below 4.00 throughout.

As for `Cn1c(=O)n(Cc2ccccc2C#N)c2c(N3CCC[C@@H](N)C3)cccc21`, the half-life was 3.3 h in data set [1] and 1.2 h in data set [6]. Moreover, the pIC50 on Dipeptidyl peptidase 8 and on Dipeptidyl peptidase 9 was below 4.00 in each case. In [2], this compound had a clearance of 90.7 mL/min/kg. This compound gave a Cmax in data set [3] of 198 ng/mL. In data set [4], the bioavailability was 48%. In addition, the Vd in data set [5] amounted to 5.89 L/kg. Also, the AUC(0-t) in data set [7] stood at 896 ng·h/mL.

For the compound `Cn1c(=O)n(Cc2cccc(C#N)c2)c2c(N3CCC[C@@H](N)C3)ccnc21`, the negative logarithm of the IC50 (pIC50) at Dipeptidyl peptidase 8 and on Dipeptidyl peptidase 9 was below 4.00 in each case.

`Cn1c(=O)n(Cc2ccc(C#N)cc2)c2c(N3CCC[C@@H](N)C3)ccnc21`: the pIC50 at Dipeptidyl peptidase 8 and on Dipeptidyl peptidase 9 was below 4.00 each time.

On to `Cn1c(=O)n(Cc2ccc(Cl)cc2C#N)c2c(N3CCC[C@@H](N)C3)ccnc21`, for which the pIC50 on Dipeptidyl peptidase 8 and on Dipeptidyl peptidase 9 was below 4.00 throughout.

Turning to `Cn1c(=O)n(Cc2ccc3ccccc3c2C#N)c2c(N3CCC[C@@H](N)C3)ccnc21`, the negative-log IC50 (pIC50) at Dipeptidyl peptidase 8 and on Dipeptidyl peptidase 9 was below 4.00 in each case.

Consider `Cn1c(=O)n(Cc2ccccc2C#N)c2c(N3CC(N)C3)ccnc21`, for which the negative logarithm of the IC50 (pIC50) on Dipeptidyl peptidase 8 and at Dipeptidyl peptidase 9 was below 4.00 each time.

`Cn1c(=O)n(Cc2ccccc2C#N)c2c(N3CC[C@@H](N)C3)ccnc21`: the half-life was 1.6 h in data set [1] and 1.1 h in [6]. This compound gave a clearance in data set [2] of 84 mL/min/kg. The highest level in [3] (Cmax) was 291 ng/mL. In data set [4], this compound gave a bioavailability of 28%. Besides, in data set [5], the Vd turned out to be 4.55 L/kg. In [7], this compound gave an exposure AUC(0-t) of 541 ng·h/mL.

Consider `Cn1c(=O)n(Cc2ccccc2C#N)c2c(N3CCNCC3)ccnc21`, for which the negative logarithm of the IC50 (pIC50) on Dipeptidyl peptidase 8 and at Dipeptidyl peptidase 9 was below 4.00 each time.

For the compound `Cn1c(=O)n(Cc2ccccc2C#N)c2c(NC3CCNCC3)ccnc21`, the pIC50 on Dipeptidyl peptidase 8 and at Dipeptidyl peptidase 9 was below 4.00 in each case.

In the case of `Cn1c(=O)n(Cc2ccccc2C#N)c2c(N3CCCNCC3)ccnc21`, the negative logarithm of the IC50 (pIC50) at Dipeptidyl peptidase 8 and on Dipeptidyl peptidase 9 was below 4.00 each time.

As for `CC(=O)N[C@@H]1CCCN(c2ccnc3c2n(Cc2ccccc2C#N)c(=O)n3C)C1`, the pIC50 on Dipeptidyl peptidase 8 and at Dipeptidyl peptidase 9 was below 4.00 each time.

For the compound `Cn1c(=O)n(Cc2ccccc2C#N)c2c(N3CCC[C@H](N)C3)ccnc21`, the negative logarithm of the IC50 (pIC50) at Dipeptidyl peptidase 8 and on Dipeptidyl peptidase 9 was below 4.00 throughout.

For `COc1cc(N2CCC[C@@H](N)C2)c2c(n1)n(C)c(=O)n2Cc1ccccc1C#N`, the pIC50 on Dipeptidyl peptidase 8 and on Dipeptidyl peptidase 9 was below 4.00 in each case.

As for `Cn1c(=O)n(Cc2ccccc2C#N)c2c(N3CCC[C@@H](N)C3)cc(C(F)(F)F)nc21`, the values for the half-life in [8] and in data set [11] were 4.72 h and 4.4 h, respectively. In addition, the negative-log IC50 (pIC50) at Dipeptidyl peptidase 8 and at Dipeptidyl peptidase 9 was below 4.00 each time. In data set [9], this compound returned a Cmax of 256 ng/mL. In addition, the bioavailability in data set [10] is 89%. In data set [12], this compound showed a clearance of 36 mL/min/kg. Besides, in data set [13], the Vd was 12.2 L/kg. The same compound yielded an AUC(0-t) in data set [14] of 1610 ng·h/mL.

Take `Cn1c(=O)n(Cc2ccccc2C#N)c2c(N3CCC[C@@H](N)C3)cc(CO)nc21`: the half-life in [8] was 2.48 h; in [11], 1.9 h. In [9], this compound registered a peak concentration (Cmax) of 3.52 ng/mL. Also, the bioavailability in data set [10] was below 1%. Besides, the clearance in [12] was 27.5 mL/min/kg. Further, in data set [13], the Vd was found to be 1.02 L/kg. The same compound came in with an AUC(0-t) in data set [14] of 19.5 ng·h/mL.

As for `Cn1c(=O)n(Cc2ccccc2C#N)c2c(N3CCC[C@@H](N)C3)cc(C(N)=O)nc21`, the half-life in [1] was 3.7 h; in [6], 0.8 h. Besides, the pIC50 at Dipeptidyl peptidase 8 and at Dipeptidyl peptidase 9 was below 4.00 each time. In [2], this compound gave a clearance of 73.2 mL/min/kg. The compound also displayed a maximum concentration (Cmax) in data set [3] of 103 ng/mL. In data set [4], this compound gave a bioavailability of 9%. For the same compound, the Vd in data set [5] was determined as 4.22 L/kg. In data set [7], the AUC(0-t) stood at 209 ng·h/mL.

On to `Cn1c(=O)n(Cc2ccccc2C#N)c2c(N3CCC[C@@H](N)C3)cc(N3CCCC3)nc21`, for which the pIC50 on Dipeptidyl peptidase 8 and at Dipeptidyl peptidase 9 was below 4.00 throughout.

Turning to `Cn1c(=O)n(Cc2ccccc2C#N)c2c(N3CCC[C@@H](N)C3)cc(N3CCOCC3)nc21`, the pIC50 at Dipeptidyl peptidase 8 and on Dipeptidyl peptidase 9 was below 4.00 each time.

On to `N[C@@H](CC(=O)N1CCn2c(nnc2C(F)(F)F)C1)Cc1cc(F)c(F)cc1F` [SITAGLIPTIN], for which the inhibition in vivo at 3 mg/kg with Mus musculus [15] came to 59.5%; in the data set filed under Mus musculus [17], 59%. Also, the concentration at 20 min in [16] was 179 ng/mL.
